The subject of the test is TERT protein. In words: Fluorescence polarization binding assay (inhibitory activity of selected Table 9 compounds). Set-up: species or system Tribolium castaneum. The following applies: TERT-Chim21m complex 250 nM, cyanine 5-dCTP 10 nM, footnote: observed value corresponds to 50% of the actual inhibition value; for Inhibition at 5 μM (%)*: compound 5 μM; for Inhibition at 50 μM (%)*: compound 50 μM. On the procedure: The TERT protein was expressed and purified as described herein. Protein was concentrated to 4.72 mg ml-l using an AMICON 30K cutoff filter (Millipore) and stored at −80° C. for binding assays.
For the binding assay, TERT protein was diluted to a 500 nM concentration in a solution of 50 mM Tris-HCl, pH 7.5, 200 mM KCl, and 20% glycerol. A 1.2-fold molar excess of the Chim21m RNA-DNA hybrid (Integrated DNA Technologies), containing the template for telomere extension (5′-rCrUrG rArCrC rUrGrA rCTT CGG TCA GGT-3′; SEQ ID NO:19), was then added to these samples and kept on ice. The cyanine 5-dCTP (Perkin Elmer) for the binding study was made up to a 20 nM concentration in sterile, RNase, DNase free water with […].
Compound screens were carried out as 30.5 μl reactions in a 384-well, round bottom plate (Thermo). Fifteen μl of TERT-Chim21m complex was first added to each well. Then 0.5 μl of library compound (ChemBridge) was added to this solution. Finally, 15 μl of the nucleotide-MgCl2 sample was added, and the solution mixed to provide final concentrations of 250 nM protein-nucleic acid, 10 nM cyanine 5-dCTP, and […]. Final compound concentrations were 50 μM and 5 μM. All additions were completed using a Janus 96/384 Modular Dispensing Tool (Perkin Elmer), performed in triplicate, and equilibrated for 40 minutes. Fluorescence polarization was measured at λex=620 nm and λem=688 nm on an EnVision Xcite Multilabel plate reader (Perkin Elmer). Polarization was calculated using the standard equation: P=(V−H)/(V+H), where P denotes polarization, V denotes vertical emission intensity, and H denotes horizontal emission intensity.
A general note: In fluorescence polarisation assays a small probe gives low polarisation when free and higher when bound to something large.

For orientation: Inhibition means the relative decrease from the control value, in per cent. A higher Inhibition goes with a response far below the control.

As to `CC(C(=O)Nn1cnnc1)N1C(=O)c2ccccc2C1=O` (stereo not drawn) [2-(1,3-dioxo-1,3-dihydro-2H-isoindol-2-yl)-N-4H-1,2,4-triazol-4-ylpropanamide], the “Inhibition at 5 μM (%)*” value is 4.74% and the “Inhibition at 50 μM (%)*” value was determined as 27.38%.

On to `CCOc1cc(CNCc2ccco2)cc(Br)c1OCC(N)=O.Cl` [2-(2-bromo-6-ethoxy-4-{[(2-furylmethyl)amino]methyl}phenoxy)acetamide hydrochloride], for which the “Inhibition at 5 μM (%)*” value worked out at 16.14% and the “Inhibition at 50 μM (%)*” value came out at 30.92%.

Regarding `COc1cc(CNCCc2ccccc2)cc(Br)c1OCC(N)=O` [2-(2-bromo-6-methoxy-4-{[(2-phenylethyl)amino]methyl}phenoxy)acetamide], the “Inhibition at 5 μM (%)*” value is reported as 12.21% and the “Inhibition at 50 μM (%)*” value is listed as 27.65%.

For `CCOc1cc(CNCc2cccs2)cc(Cl)c1OCC(N)=O.Cl` [2-(2-chloro-6-ethoxy-4-{[(2-thienylmethyl)amino]methyl}phenoxy)acetamide hydrochloride], the “Inhibition at 5 μM (%)*” value is listed as 17.68% and the “Inhibition at 50 μM (%)*” value came to 49.10%.

Take `CCOc1cc(CNCc2cccnc2)cc(Cl)c1OCC(N)=O.Cl` [2-(2-chloro-6-ethoxy-4-{[(3-pyridinylmethyl)amino]methyl}phenoxy)acetamide hydrochloride]: the “Inhibition at 5 μM (%)*” value was determined as 14.87% and the “Inhibition at 50 μM (%)*” value is reported as 38.78%.

Regarding `COc1cc(CNc2ccc3[nH]c(=O)[nH]c3c2)cc(Cl)c1OCC(N)=O` [2-(2-chloro-6-methoxy-4-{[(2-oxo-2,3-dihydro-1H-benzimidazol-5-yl)amino]methyl}phenoxy)acetamide], the “Inhibition at 5 μM (%)*” value came out at 15.94% and the “Inhibition at 50 μM (%)*” value came out at 29.33%.

For `COc1cc(CNCc2cccs2)cc(Cl)c1OCC(N)=O.Cl` [2-(2-chloro-6-methoxy-4-{[(2-thienylmethyl)amino]methyl}phenoxy)acetamide hydrochloride], the “Inhibition at 5 μM (%)*” value is 10.94% and the “Inhibition at 50 μM (%)*” value is 41.26%.

With `COc1cc(CNCc2ccncc2)cc(Cl)c1OCC(N)=O.Cl` [2-(2-chloro-6-methoxy-4-{[(4-pyridinylmethyl)amino]methyl}phenoxy)acetamide hydrochloride], the “Inhibition at 5 μM (%)*” value turned out to be 23.05% and the “Inhibition at 50 μM (%)*” value was 45.56%.

In the case of `COc1cc(CNCCN2CCOCC2)cc(Br)c1OCC(N)=O.Cl.Cl` [2-[2-bromo-6-methoxy-4-({[2-(4-morpholinyl)ethyl]amino}methyl)phenoxy]acetamide dihydrochloride], the “Inhibition at 5 μM (%)*” value worked out at 18.27% and the “Inhibition at 50 μM (%)*” value is reported as 30.23%.

For `Cc1ccc(C(=O)Nn2cnnc2)c(Cl)c1` [2-chloro-4-methyl-N-4H-1,2,4-triazol-4-ylbenzamide], the “Inhibition at 5 μM (%)*” value came out at 10.94% and the “Inhibition at 50 μM (%)*” value turned out to be 29.35%.

`CNCc1cc(Cl)c(OCC(N)=O)c(OC)c1.Cl` [2-{2-chloro-6-methoxy-4-[(methylamino)methyl]phenoxy}acetamide hydrochloride]: the “Inhibition at 5 μM (%)*” value is 17.00% and the “Inhibition at 50 μM (%)*” value was 31.30%.

With `COc1cc(CNC2C3CC4CC(C3)CC2C4)cc(Cl)c1OCC(N)=O` (stereo not drawn) [2-{4-[(2-adamantylamino)methyl]-2-chloro-6-methoxyphenoxy}acetamide], the “Inhibition at 5 μM (%)*” value is 13.73% and the “Inhibition at 50 μM (%)*” value was determined as 35.18%.

In the case of `COc1cc(CNCc2ccccc2)cc(Cl)c1OCC(N)=O.Cl` [2-{4-[(benzylamino)methyl]-2-chloro-6-methoxyphenoxy}acetamide hydrochloride], the “Inhibition at 5 μM (%)*” value is recorded as 4.96% and the “Inhibition at 50 μM (%)*” value was 29.96%.

Take `NC(=O)CCN1C(=O)c2cccc3cccc(c23)C1=O` [3-(1,3-dioxo-1H-benzo[de]isoquinolin-2(3H)-yl)propanamide]: the “Inhibition at 5 μM (%)*” value was determined as 18.11% and the “Inhibition at 50 μM (%)*” value came to 36.58%.

Turning to `O=C(Nn1cnnc1)c1cc(Br)ccc1Cl` [5-bromo-2-chloro-N-4H-1,2,4-triazol-4-ylbenzamide], the “Inhibition at 5 μM (%)*” value is listed as 11.97% and the “Inhibition at 50 μM (%)*” value amounted to 30.04%.

Turning to `CC(O)CNC(=O)C(=O)Nc1ccc2c(c1)OCO2` (stereo not drawn) [N-1,3-benzodioxol-5-yl-N′-(2-hydroxypropyl)ethanediamide], the “Inhibition at 5 μM (%)*” value is 6.67% and the “Inhibition at 50 μM (%)*” value is given as 29.71%.

On to `O=C(NCCCO)C1CCCN(S(=O)(=O)c2ccc3ccccc3c2)C1` (stereo not drawn) [N-(3-hydroxypropyl)-1-(2-naphthylsulfonyl)-3-piperidinecarboxamide], for which the “Inhibition at 5 μM (%)*” value turned out to be 13.44% and the “Inhibition at 50 μM (%)*” value stood at 30.42%.

On to `CCOC(=O)c1c(NC(=O)/C=C/C(N)=O)sc(C)c1C` [ethyl 2-[(4-amino-4-oxo-2-butenoyl)amino]-4,5-dimethyl-3-thiophenecarboxylate], for which the “Inhibition at 5 μM (%)*” value stood at 19.23% and the “Inhibition at 50 μM (%)*” value is listed as 39.41%.

The values above are taken from patent publication US9234230B2, “Screening method and compounds for modulating telomerase activity” (The Wistar Institute, priority 2010, dated 2016).
